Experimental data taken from ChEMBL document CHEMBL2150905, “Discovery of Disubstituted Imidazo[4,5-b]pyridines and Purines as Potent TrkA Inhibitors” (ACS Med Chem Lett, 2012).
Converted amounts (≈) assume the structure as drawn.

Columns and labels:
[1] = in vitro; details: human, plasma
Description: Fraction unbound in human plasma

[2] = physchem; details: buffer
Description: Aqueous solubility of the compound

[3] = target: Voltage-gated inwardly rectifying potassium channel KCNH2 (Homo sapiens, UniProt Q12809)
[4] = Half life in Han Wistar rat at 10 mg/kg, po and 3 mg/kg, iv; format: ADME, organism-based; details: in vivo
[5] = Oral bioavailability in Han Wistar rat at 10 mg/kg; format: ADME, organism-based; details: in vivo
[6] = in vivo; details: Han Wistar, rat, iv, 3 mg/kg
Description: Clearance in Han Wistar rat at 10 mg/kg, po and 3 mg/kg, iv

[7] = tested on: Mus musculus; assay: Toxicity in 3T3 cells overexpressing constitutively active TRKA allografted CrTac:Ncr-Foxn1nu mouse assessed as weight loss at 1 to 5 mg/kg, po BID for 7 days; format: organism-based, NIH3T3; design: dose 1-5 mg/kg, route oral; details: in vivo, 168 h
[8] = tested on: NIH3T3; assay: animal or person; details: Mus musculus, NIH3T3, po, 168 h, read-out: TGI
Description: Antitumor activity against 3T3 cells overexpressing constitutively active TRKA allografted in CrTac:Ncr-Foxn1nu mouse assessed as tumor growth inhibition at 1 mg/kg, po BID for 7 days

[9] = Oral bioavailability in beagle dog at 10 mg/kg; format: ADME, organism-based, Canis lupus familiaris; details: in vivo
[10] = in vitro; details: rat, hepatocytes
Description: Intrinsic clearance in rat hepatocytes assessed per million cells by LC/MS/MS analysis

[11] = tested on: NIH3T3; assay: Antitumor activity against 3T3 cells overexpressing constitutively active TRKA allografted in CrTac:Ncr-Foxn1nu mouse assessed as tumor stasis at 5 mg/kg, po BID for 7 days; format: functional
[12] = Clearance in beagle dog at 10 mg/kg, po and 2 mg/kg, iv; format: ADME, organism-based, Canis lupus familiaris; details: in vivo
[13] = Half life in beagle dog at 10 mg/kg, po and 2 mg/kg, iv; format: ADME, organism-based, Canis lupus familiaris; details: in vivo
[14] = target: T1, Tyrosine-protein kinase ABL1 (Homo sapiens, UniProt P00519); details: 10 uM
Description: Inhibition of Abl at 10 uM

[15] = target: T2, Proto-oncogene tyrosine-protein kinase Src (Homo sapiens, UniProt P12931); assay: Inhibition of cSrc
[16] = target: Muscle, skeletal receptor tyrosine-protein kinase (Homo sapiens, UniProt O15146); assay: Inhibition of MuSk
[17] = target: T3, Tyrosine-protein kinase JAK2 (Homo sapiens, UniProt O60674); assay: Inhibition of JAK2
[18] = target: T4, ALK tyrosine kinase receptor (Homo sapiens, UniProt Q9UM73); assay: Inhibition of ALK
[19] = target: T5, Serine/threonine-protein kinase SIK1 (Homo sapiens, UniProt P57059); assay: Inhibition of SIK
[20] = target: Receptor-type tyrosine-protein kinase FLT3 (Homo sapiens, UniProt P36888); assay: Inhibition of Flt3
[21] = target: T6, Focal adhesion kinase 1 (Homo sapiens, UniProt Q05397); assay: Inhibition of FAK
[22] = target: T7, Mitogen-activated protein kinase 14 (Homo sapiens, UniProt Q16539); assay: Inhibition of SAPK2a
[23] = target: T7, Mitogen-activated protein kinase 14; assay: Inhibition of SAPK2a at 10 uM
[24] = target: T8, Serine/threonine-protein kinase WNK3 (Homo sapiens, UniProt Q9BYP7); assay: Inhibition of WNK3
[25] = target: T6, Focal adhesion kinase 1; assay: Inhibition of FAK at 10 uM
[26] = target: BDNF/NT-3 growth factors receptor (Homo sapiens, UniProt Q16620); assay: Inhibition of TrkB
[27] = target: T9, Mitogen-activated protein kinase kinase kinase 9 (Homo sapiens, UniProt P80192); assay: Inhibition of MLK1 at 10 uM
[28] = target: T10, Tyrosine-protein kinase BTK (Homo sapiens, UniProt Q06187); assay: Inhibition of BTK at 10 uM
[29] = target: Phosphorylase b kinase gamma catalytic chain, liver/testis isoform (Homo sapiens, UniProt P15735); assay: Inhibition of PhKg2
[30] = target: Tyrosine-protein kinase Lck (Homo sapiens, UniProt P06239); assay: Inhibition of Lck
[31] = target: T11, Fibroblast growth factor receptor 1 (Homo sapiens, UniProt P11362); assay: Inhibition of FGFR1 at 10 uM
[32] = target: T11, Fibroblast growth factor receptor 1; assay: Inhibition of FGFR1
[33] = target: Tyrosine-protein kinase ITK/TSK (Homo sapiens, UniProt Q08881); assay: Inhibition of Itk
[34] = target: T10, Tyrosine-protein kinase BTK; assay: Inhibition of BTK
[35] = target: Receptor-type tyrosine-protein kinase FLT3 (Homo sapiens) (UniProt P36888); assay: Inhibition of Flt3 at 10 uM
[36] = target: T8, Serine/threonine-protein kinase WNK3; details: 10 uM
Description: Inhibition of WNK3 at 10 uM

[37] = target: T12, High affinity nerve growth factor receptor (Homo sapiens, UniProt P04629); assay: Inhibition of TrkA
[38] = target: Testis-specific serine/threonine-protein kinase 2 (Homo sapiens) (UniProt Q96PF2); details: 10 uM
Description: Inhibition of TSSK2 at 10 uM

[39] = target: T9, Mitogen-activated protein kinase kinase kinase 9; assay: Inhibition of MLK1
[40] = target: T1, Tyrosine-protein kinase ABL1; assay: Inhibition of Abl
[41] = target: Proto-oncogene tyrosine-protein kinase receptor Ret (Homo sapiens, UniProt P07949); assay: Inhibition of Ret
[42] = target: T13, Tyrosine-protein kinase Fgr (Homo sapiens, UniProt P09769); assay: Inhibition of Fgr at 10 uM
[43] = target: Tyrosine-protein kinase ITK/TSK (Homo sapiens) (UniProt Q08881); assay: Inhibition of Itk at 10 uM
[44] = target: T3, Tyrosine-protein kinase JAK2; assay: Inhibition of JAK2 at 10 uM
[45] = target: T12, High affinity nerve growth factor receptor; details: 10 uM
Description: Inhibition of TrkA at 10 uM

[46] = target: T5, Serine/threonine-protein kinase SIK1; assay: Inhibition of SIK at 10 uM
[47] = target: Phosphorylase b kinase gamma catalytic chain, liver/testis isoform (Homo sapiens) (UniProt P15735); assay: Inhibition of PhKg2 at 10 uM
[48] = target: T4, ALK tyrosine kinase receptor; assay: Inhibition of ALK at 10 uM
[49] = target: T2, Proto-oncogene tyrosine-protein kinase Src; assay: Inhibition of cSrc at 10 uM
[50] = target: T14, Vascular endothelial growth factor receptor 3 (Homo sapiens, UniProt P35916); assay: Inhibition of FLT4 at 10 uM
[51] = target: T13, Tyrosine-protein kinase Fgr; assay: Inhibition of Fgr
[52] = target: Testis-specific serine/threonine-protein kinase 2 (Homo sapiens, UniProt Q96PF2); assay: Inhibition of TSSK2
[53] = target: T14, Vascular endothelial growth factor receptor 3; assay: Inhibition of FLT4
[54] = tested on: NIH3T3; assay: Antitumor activity against 3T3 cells overexpressing constitutively active TRKA allografted in CrTac:Ncr-Foxn1nu mouse assessed as tumor regression at 25 mg/kg, po BID for 7 days; format: functional
[55] = tested on: NIH3T3; assay: Antitumor activity against 3T3 cells overexpressing constitutively active TRKA allografted in CrTac:Ncr-Foxn1nu mouse assessed as tumor regression at 5 mg/kg, po BID for 7 days; format: functional
[56] = tested on: Mus musculus; assay: Toxicity in 3T3 cells overexpressing constitutively active TRKA allografted CrTac:Ncr-Foxn1nu mouse assessed as weight loss at 1 to 25 mg/kg, po BID for 7 days; format: organism-based, NIH3T3; design: dose 1-25 mg/kg, route oral; details: in vivo, 168 h
[57] = tested on: NIH3T3; assay: Antitumor activity against 3T3 cells overexpressing constitutively active TRKA allografted in CrTac:Ncr-Foxn1nu mouse assessed as tumor growth delay time at 25 mg/kg, po BID for 7 days; format: functional

Voltage-gated inwardly rectifying potassium channel KCNH2, sequence (Q12809 whole entry): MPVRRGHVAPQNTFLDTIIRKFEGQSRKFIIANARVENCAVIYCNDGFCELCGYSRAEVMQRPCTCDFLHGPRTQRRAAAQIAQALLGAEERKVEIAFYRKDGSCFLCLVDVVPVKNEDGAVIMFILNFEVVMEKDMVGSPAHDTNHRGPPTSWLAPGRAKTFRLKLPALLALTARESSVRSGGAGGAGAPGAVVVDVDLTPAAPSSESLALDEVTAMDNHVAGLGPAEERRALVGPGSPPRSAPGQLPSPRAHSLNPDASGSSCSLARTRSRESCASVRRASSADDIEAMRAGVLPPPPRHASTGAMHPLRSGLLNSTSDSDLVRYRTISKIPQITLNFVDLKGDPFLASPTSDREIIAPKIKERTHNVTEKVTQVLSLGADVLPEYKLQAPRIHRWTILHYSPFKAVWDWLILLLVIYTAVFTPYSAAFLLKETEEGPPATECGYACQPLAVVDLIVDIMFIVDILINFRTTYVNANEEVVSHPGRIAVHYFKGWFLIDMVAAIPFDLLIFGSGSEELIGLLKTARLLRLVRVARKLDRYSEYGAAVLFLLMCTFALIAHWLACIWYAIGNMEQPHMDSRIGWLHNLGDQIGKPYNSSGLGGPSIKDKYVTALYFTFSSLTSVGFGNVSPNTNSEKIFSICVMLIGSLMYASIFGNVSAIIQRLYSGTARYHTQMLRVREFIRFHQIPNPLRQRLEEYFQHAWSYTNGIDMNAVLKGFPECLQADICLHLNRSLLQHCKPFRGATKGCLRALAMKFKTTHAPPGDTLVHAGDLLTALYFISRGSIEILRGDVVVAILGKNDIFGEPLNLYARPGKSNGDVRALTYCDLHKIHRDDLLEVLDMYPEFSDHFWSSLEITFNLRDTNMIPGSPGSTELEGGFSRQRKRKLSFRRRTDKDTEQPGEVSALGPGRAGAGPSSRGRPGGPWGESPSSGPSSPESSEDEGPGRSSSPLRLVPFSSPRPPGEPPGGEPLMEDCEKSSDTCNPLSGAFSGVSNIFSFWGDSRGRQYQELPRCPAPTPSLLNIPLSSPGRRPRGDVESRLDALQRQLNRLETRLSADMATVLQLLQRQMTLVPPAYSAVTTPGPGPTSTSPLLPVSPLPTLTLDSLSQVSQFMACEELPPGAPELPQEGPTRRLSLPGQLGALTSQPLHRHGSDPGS
T10 sequence (Q06187 whole entry, canonical isoform): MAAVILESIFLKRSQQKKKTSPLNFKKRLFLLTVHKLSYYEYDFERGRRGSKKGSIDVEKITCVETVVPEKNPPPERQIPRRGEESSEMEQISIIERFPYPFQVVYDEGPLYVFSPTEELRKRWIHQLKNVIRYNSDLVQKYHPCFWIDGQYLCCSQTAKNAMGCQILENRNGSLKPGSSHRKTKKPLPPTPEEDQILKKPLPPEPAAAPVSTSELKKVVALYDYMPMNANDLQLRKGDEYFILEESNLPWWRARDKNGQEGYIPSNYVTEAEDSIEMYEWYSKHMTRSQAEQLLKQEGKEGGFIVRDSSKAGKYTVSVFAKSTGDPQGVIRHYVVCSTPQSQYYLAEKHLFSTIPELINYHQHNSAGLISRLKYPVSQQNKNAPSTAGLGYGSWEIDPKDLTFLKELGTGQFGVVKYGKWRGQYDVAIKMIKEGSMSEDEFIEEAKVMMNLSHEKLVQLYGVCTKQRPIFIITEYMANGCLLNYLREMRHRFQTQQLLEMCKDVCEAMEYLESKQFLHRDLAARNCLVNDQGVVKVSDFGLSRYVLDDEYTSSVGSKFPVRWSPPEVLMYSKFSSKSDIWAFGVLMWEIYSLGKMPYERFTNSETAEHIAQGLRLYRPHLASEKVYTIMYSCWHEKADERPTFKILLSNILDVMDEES
T5 sequence (P57059 whole entry): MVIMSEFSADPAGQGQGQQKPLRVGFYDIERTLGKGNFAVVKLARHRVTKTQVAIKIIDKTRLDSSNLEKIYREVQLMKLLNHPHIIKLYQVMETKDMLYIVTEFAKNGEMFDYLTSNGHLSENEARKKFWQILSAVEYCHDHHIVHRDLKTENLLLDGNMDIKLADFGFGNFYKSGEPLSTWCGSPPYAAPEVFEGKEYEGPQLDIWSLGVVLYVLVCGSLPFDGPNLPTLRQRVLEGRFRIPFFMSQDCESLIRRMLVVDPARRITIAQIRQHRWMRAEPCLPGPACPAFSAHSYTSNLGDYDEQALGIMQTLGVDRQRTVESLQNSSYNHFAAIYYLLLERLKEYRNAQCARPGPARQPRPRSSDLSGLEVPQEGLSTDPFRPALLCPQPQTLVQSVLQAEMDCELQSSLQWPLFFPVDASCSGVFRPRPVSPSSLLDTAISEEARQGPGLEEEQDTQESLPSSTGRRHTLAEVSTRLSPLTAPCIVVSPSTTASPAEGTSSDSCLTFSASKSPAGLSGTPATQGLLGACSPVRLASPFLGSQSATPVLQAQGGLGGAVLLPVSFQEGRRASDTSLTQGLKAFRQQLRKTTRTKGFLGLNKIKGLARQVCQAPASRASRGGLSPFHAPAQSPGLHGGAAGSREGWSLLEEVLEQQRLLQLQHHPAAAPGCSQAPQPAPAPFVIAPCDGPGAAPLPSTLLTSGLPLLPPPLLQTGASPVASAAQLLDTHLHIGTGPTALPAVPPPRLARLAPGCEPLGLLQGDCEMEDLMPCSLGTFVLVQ
T7 sequence (Q16539 whole entry): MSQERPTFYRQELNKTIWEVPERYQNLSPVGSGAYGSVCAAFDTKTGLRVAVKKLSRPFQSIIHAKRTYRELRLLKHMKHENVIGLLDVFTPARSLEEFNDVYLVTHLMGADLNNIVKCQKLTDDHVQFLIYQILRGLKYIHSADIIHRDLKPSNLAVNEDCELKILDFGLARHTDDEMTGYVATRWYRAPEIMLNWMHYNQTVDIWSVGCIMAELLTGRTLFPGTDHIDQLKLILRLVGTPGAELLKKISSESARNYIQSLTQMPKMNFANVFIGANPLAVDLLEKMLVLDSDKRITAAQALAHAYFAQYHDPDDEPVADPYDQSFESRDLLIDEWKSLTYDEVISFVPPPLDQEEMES
T2 sequence (P12931 2-536 limits assumed): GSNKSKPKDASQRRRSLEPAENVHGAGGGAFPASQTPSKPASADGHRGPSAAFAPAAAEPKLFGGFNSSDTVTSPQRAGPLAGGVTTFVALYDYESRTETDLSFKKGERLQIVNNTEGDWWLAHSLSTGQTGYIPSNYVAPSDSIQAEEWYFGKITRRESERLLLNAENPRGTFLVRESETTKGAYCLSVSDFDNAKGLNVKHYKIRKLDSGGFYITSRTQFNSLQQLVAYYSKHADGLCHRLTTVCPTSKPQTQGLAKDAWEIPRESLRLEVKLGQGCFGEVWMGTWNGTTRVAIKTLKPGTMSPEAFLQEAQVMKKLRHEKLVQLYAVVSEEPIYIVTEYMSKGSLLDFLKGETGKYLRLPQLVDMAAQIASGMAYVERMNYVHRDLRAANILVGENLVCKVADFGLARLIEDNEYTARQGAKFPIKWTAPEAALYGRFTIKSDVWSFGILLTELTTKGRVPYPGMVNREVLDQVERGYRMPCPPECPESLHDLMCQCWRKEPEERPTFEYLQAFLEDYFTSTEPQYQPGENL
T3 sequence (O60674 whole entry): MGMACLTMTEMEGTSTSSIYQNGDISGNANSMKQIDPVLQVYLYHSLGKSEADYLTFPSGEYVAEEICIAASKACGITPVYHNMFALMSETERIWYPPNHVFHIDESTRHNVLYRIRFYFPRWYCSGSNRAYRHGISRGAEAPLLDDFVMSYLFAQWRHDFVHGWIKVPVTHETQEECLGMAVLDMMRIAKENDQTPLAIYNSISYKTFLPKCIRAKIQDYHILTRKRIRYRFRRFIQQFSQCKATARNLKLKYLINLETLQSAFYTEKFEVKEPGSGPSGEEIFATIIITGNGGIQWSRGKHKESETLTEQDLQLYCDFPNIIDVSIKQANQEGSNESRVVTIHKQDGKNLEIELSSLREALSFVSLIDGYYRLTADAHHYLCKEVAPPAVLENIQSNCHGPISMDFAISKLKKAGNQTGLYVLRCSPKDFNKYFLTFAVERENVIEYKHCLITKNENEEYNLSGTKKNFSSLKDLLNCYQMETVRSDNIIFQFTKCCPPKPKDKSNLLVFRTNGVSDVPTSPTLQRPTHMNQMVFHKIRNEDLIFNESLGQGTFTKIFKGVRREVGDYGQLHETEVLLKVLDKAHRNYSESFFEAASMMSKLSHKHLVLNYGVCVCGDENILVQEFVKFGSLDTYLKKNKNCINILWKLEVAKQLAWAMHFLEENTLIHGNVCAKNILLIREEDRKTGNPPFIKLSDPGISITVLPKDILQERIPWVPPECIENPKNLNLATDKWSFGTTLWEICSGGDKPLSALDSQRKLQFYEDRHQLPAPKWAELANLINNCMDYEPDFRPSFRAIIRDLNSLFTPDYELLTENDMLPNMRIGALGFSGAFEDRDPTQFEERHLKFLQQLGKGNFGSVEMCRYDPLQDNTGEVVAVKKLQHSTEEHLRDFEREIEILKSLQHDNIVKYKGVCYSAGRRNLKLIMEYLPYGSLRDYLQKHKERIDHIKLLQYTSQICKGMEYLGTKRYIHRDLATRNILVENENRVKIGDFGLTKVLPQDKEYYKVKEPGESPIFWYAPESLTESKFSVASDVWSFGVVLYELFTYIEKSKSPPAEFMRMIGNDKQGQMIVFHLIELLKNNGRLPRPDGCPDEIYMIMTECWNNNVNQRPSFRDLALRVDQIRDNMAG
Testis-specific serine/threonine-protein kinase 2, sequence (Q96PF2 whole entry): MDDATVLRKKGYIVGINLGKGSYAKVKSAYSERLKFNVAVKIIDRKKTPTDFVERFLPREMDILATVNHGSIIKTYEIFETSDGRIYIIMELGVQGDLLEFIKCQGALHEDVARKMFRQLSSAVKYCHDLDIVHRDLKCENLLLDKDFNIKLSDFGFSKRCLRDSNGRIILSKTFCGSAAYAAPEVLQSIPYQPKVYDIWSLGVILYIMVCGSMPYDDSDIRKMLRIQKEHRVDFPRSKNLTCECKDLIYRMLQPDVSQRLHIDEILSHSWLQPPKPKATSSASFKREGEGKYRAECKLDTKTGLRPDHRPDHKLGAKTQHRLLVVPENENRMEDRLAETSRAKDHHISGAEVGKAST

SMILES: Cc1cc(-n2cnc3ccc(N[C@@H](C)c4ncc(F)cn4)nc32)n[nH]1
- fraction unbound [1]: 0.39
- solubility [2]: > 1000 µM
- IC50 [3]: > 32000 nM
- half-life [4]: 0.82 h
- bioavailability [5]: 92%
- clearance [6]: 45 mL/min/kg

SMILES: CC(C)Oc1cc(-n2cnc3ccc(N[C@@H](CO)c4ccc(F)cn4)nc32)n[nH]1
- Activity [7]: < 5%
- fraction unbound [1]: 0.081
- inhibition in vivo at 1 mg/kg [8]: 12%
- solubility [2]: 250 µM (≈ 99.4 µg/mL)
- bioavailability [9]: 17%
- hepatocyte CLint [10]: 13 µL/min/1e6 cells
- IC50 [3]: 52000 nM
- Activity [11]: -47%
- clearance [12]: 15.2 mL/min/kg
- half-life [13]: 1 h
- half-life [4]: 2.3 h
- bioavailability [5]: 29%
- clearance [6]: 46 mL/min/kg

SMILES: CC(C)Oc1cc(-n2cnc3ccc(N[C@@H](C)c4ccc(F)cn4)nc32)n[nH]1
- inhibition [14]: > 30%
- IC50 [15]: 18.2 nM
- IC50 [16]: < 100 nM
- IC50 [17]: 68.3 nM
- IC50 [18]: 34.1 nM
- IC50 [19]: 5.5 nM
- IC50 [20]: 2.1 nM
- IC50 [21]: 17.2 nM
- IC50 [22]: 13.4 nM
- inhibition [23]: > 30%
- fraction unbound [1]: 0.06
- IC50 [24]: 99.8 nM
- inhibition [25]: > 30%
- IC50 [26]: < 100 nM
- inhibition [27]: > 30%
- inhibition [28]: > 30%
- IC50 [29]: 6.1 nM
- hepatocyte CLint [10]: 42 µL/min/1e6 cells
- IC50 [30]: < 100 nM
- IC50 [3]: > 32000 nM
- inhibition [31]: > 30%
- IC50 [32]: 8.7 nM
- IC50 [33]: 72.2 nM
- IC50 [34]: 3.5 nM
- inhibition [35]: > 30%
- inhibition [36]: > 30%
- IC50 [37]: 1.4 nM
- inhibition [38]: > 30%
- IC50 [39]: 44.3 nM
- IC50 [40]: 1.2 nM
- IC50 [41]: < 100 nM
- inhibition [42]: > 30%
- inhibition [43]: > 30%
- inhibition [44]: > 30%
- inhibition [45]: > 30%
- inhibition [46]: > 30%
- half-life [4]: 0.97 h
- inhibition [47]: > 30%
- inhibition [48]: > 30%
- bioavailability [5]: 6.7%
- inhibition [49]: > 30%
- inhibition [50]: > 30%
- clearance [6]: 41 mL/min/kg
- IC50 [51]: 2.2 nM
- IC50 [52]: 30.6 nM
- IC50 [53]: 64 nM

SMILES: COc1cc(Nc2nc3c(cc2F)ncn3[C@@H](CO)c2ccc(F)cn2)n[nH]1
- solubility [2]: 150 µM (≈ 58.1 µg/mL)
- hepatocyte CLint [10]: 29 µL/min/1e6 cells
- IC50 [3]: > 32000 nM
- half-life [4]: 3.2 h
- bioavailability [5]: 41%
- clearance [6]: 33 mL/min/kg

SMILES: CC(C)Oc1cc(-n2cnc3cnc(N[C@@H](C)c4ncc(F)cn4)nc32)n[nH]1
- fraction unbound [1]: 0.31
- solubility [2]: 480 µM (≈ 184 µg/mL)
- hepatocyte CLint [10]: 24 µL/min/1e6 cells
- IC50 [3]: > 32000 nM
- half-life [4]: 3.8 h
- bioavailability [5]: 29%
- clearance [6]: 130 mL/min/kg

SMILES: C[C@H](Nc1ccc2ncn(-c3cc(C4CC4)[nH]n3)c2n1)c1ncc(F)cn1
- fraction unbound [1]: 0.16
- solubility [2]: 590 µM (≈ 215 µg/mL)
- hepatocyte CLint [10]: 48 µL/min/1e6 cells
- half-life [4]: 1.2 h
- bioavailability [5]: 33%
- clearance [6]: 39 mL/min/kg

SMILES: CC(C)Oc1cc(Nc2nc3c(cc2F)ncn3[C@@H](CO)c2ccc(F)cn2)n[nH]1
- Activity [54]: -63%
- fraction unbound [1]: 0.058
- inhibition in vivo at 1 mg/kg [8]: 30%
- solubility [2]: 220 µM (≈ 91.4 µg/mL)
- Activity [55]: -51%
- Activity [56]: < 5%
- hepatocyte CLint [10]: 31 µL/min/1e6 cells
- Time [57]: 4 days
- half-life [4]: 1.2 h
- bioavailability [5]: 54%
- clearance [6]: 51 mL/min/kg
